Data set [1] in a line: Solubility in water / aqueous solution. Type of data set: physicochemical. The following applies: for Solubility (in words): aqueous solution, free base versus tartrate acid addition salt.
Data set [2] deals with T1, human BChE (Homo sapiens, UniProt P06276).
T1 construct: use human BChE and AChE freshly prepared from human plasma and erythrocytes, respectively; from tissue; host or cells: human plasma
The following applies: human BChE freshly prepared from human plasma; see Greig et al. page 78; cited from earlier work.

The target in data set [3] is T2, human AChE (Homo sapiens, UniProt P22303).
T2 construct: use human BChE and AChE freshly prepared from human plasma and erythrocytes, respectively; from tissue; host or cells: human erythrocytes
Conditions: human AChE freshly prepared from human erythrocytes; see Greig et al. page 78; cited from earlier work.

Data set [4] has as its system aged (24-26-month-old) Fischer-344 rats. The following applies: Stone 14-unit T-maze, Greig et al. 2003; cited from earlier work.
Data set [5] concerns the target T1, human BChE. In words: Inhibition of human plasma BChE activity (IC50). It is filed as biochemical. The following applies: human BChE freshly prepared from human plasma. The text has this:
(§1) Potential cholinesterase agents may be evaluated for potency in vitro by assaying its inhibitory effect on electric eel and human red blood cell ACHE and human plasma BCHE activity in cell-free extracts (See U.S. Pat. Nos. 6,495,700; 5,409,948; 5,171,750; 5,378,723; and 5,998,460). Studies also commonly utilize aged rat models to evaluate effectiveness of therapeutic drug leads in ameliorating cognitive disorders. […] (See, Greig, N. H. et al. “Butyrylcholinesterase: Its Function and Inhibition.” (ed., Giacobini, E.) Martin Dunitz, Ltd., London, 69-90, 2003, Chapter 6: Butyrylcholinesterase: its selective inhibition and relevance to Alzheimer's disease therapy at pages 80-81).
(§2) (See, Greig, N. H. et al. at page 78). These biological activity assays use human BChE and AChE freshly prepared from human plasma and erythrocytes, respectively.
(§3) These biological activity assays use human BChE and AChE freshly prepared from human plasma and erythrocytes, respectively.

Data set [6] addresses T2, human AChE. In words: Inhibition of human erythrocyte AChE activity (IC50). Type of data set: biochemical. The following applies: human AChE freshly prepared from human erythrocytes.
Description: as §1, §2, §3

In data set [7] the test system is aged (21-22 month old) Fisher-344 rats. Put plainly: Stone maze cognitive ability test after i.p. MHI tartrate (Example VII). The following applies: 0.5 to 1.0 mg per kg intraperitoneal, daily, aged Fisher-344 rats. Type of data set: in vivo, rat. The procedure:
(See U.S. Pat. No. 6,683,105). MHI tartrate is administered in dosages in the range of 0.5 to 1.0 mg per kg of subject body weight. This dosage is administered daily, for example, 1-3 times per day. Effectiveness of MHI tartrate is measured by testing cognitive ability before and after administration. For instance, rats may be tested using a “Stone maze” in which a maze constructed of translucent plastic containing a grid floor wired for scrambled foot shocks surrounded by opaque gray walls to minimize effects of non-MHI tartrate related variables. Rats are given 10 seconds in which to navigate the maze. […] Similar cognitive tests, for instance timed, objective memorization tests, may be used on other subjects, such as humans.

Data on three molecules can be found in patent US20060105940A1, “Compound useful in the treatment or prevention of cognitive disorders associated with diabetes and associated methods” (Axonyx, Inc., priority 2004, published 2006).

Structures can show the parent of a compound that is named as a salt. Where two headings read alike, the source gives them in different places.

A word on the IC50: it is the concentration that inhibits the measured activity by half.

T1 sequence (P06276 29-602): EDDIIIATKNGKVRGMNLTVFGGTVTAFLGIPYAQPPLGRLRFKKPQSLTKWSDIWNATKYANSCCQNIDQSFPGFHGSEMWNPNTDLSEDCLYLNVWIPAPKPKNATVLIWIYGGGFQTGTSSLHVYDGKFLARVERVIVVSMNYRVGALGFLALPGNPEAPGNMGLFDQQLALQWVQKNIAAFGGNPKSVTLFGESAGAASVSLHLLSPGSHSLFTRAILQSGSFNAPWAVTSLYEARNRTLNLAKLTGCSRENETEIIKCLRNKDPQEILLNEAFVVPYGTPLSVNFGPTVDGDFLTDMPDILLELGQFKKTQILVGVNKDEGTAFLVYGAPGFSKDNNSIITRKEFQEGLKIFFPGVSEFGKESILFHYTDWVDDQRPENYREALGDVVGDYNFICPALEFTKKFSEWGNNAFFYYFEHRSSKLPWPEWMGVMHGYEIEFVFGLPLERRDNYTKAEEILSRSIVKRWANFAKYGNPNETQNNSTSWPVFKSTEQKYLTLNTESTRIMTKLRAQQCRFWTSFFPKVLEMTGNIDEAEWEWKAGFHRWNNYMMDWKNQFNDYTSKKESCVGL
T2 sequence (P22303 32-617 isoform P22303-2 limits assumed): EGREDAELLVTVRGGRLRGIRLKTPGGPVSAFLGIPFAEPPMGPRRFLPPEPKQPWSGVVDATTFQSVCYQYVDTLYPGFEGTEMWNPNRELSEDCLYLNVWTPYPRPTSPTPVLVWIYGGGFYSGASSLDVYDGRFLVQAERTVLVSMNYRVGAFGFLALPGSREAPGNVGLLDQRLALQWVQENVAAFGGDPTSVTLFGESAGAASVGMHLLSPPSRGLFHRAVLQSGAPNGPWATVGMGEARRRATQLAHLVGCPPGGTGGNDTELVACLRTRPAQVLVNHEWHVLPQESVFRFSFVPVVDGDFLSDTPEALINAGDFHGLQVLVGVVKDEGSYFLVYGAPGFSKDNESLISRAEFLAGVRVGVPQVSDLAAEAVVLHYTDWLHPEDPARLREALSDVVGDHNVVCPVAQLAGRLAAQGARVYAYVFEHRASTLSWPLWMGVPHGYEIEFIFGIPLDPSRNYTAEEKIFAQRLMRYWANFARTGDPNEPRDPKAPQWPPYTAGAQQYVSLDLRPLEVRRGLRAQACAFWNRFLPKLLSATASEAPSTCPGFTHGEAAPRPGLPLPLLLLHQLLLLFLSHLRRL

For the molecule `CC(C)c1ccc(NC(=O)Oc2ccc3c(c2)C2(C)CCNC2N3)cc1` (single isomer, unassigned; (-)) [MHI (Base)], the Solubility result in data set [1] (listed as MHI) is “about 0.0005 g/ml”. For the same molecule, in data set [1], the “Solubility (g per 100 ml Saturated H2O solution at room temperature)” value came out at 0.05 g g per 100 ml. The half-maximal inhibitory concentration (IC50) in data set [2] is 1 ± 0.1 nM; in data set [3], 110 ± 15 nM. Also, in data set [4], the Augmenting memory processing entry is recorded as “potent in augmenting memory processing”.

Turning to `CC(C)c1ccc(NC(=O)Oc2ccc3c(c2)C2(C)CCNC2N3)cc1` [MHI tartrate, tartrate acid addition salt of the compound (−)-(3aS)-3a-methyl-1,2,3,3a,8,8a-hexahydropyrrolo-[2,3-b]indol-5-yl N-4′-isopropylphenylcarbamate], the half-maximal inhibitory concentration (IC50) came to 1 ± 0.1 nM in data set [5] and 110 ± 15 nM in data set [6]. The “Solubility (in words)” value in data set [1] is “highly soluble”. Besides, the “Solubility (g per 100 ml Saturated H2O solution at room temperature)” value in data set [1] is on record as 1 g g per 100 ml. Besides, in data set [7], the “Cognitive ability (maze navigation)” value is reported as “increase cognitive ability”.

Turning to `CC(C)c1ccc(NC(=O)Oc2ccc3c(c2)[C@]2(C)CCN(CCc4ccccc4)[C@@H]2N3C)cc1` [phenethylcymserine, reference compound], the “Solubility (in words)” value in data set [1] was “insoluble”.
